Data from article PMC5915743, “Screening of a Novel Fragment Library with Functional Complexity against Mycobacterium tuberculosis InhA” (Chemmedchem, 2018).

Key:
[1] = molecular target: T1, Mycobacterium tuberculosis InhA (Mycobacterium tuberculosis, UniProt P9WGR1); assay: surface plasmon resonance, equilibrium; format: binding; details: read-out: SPR pK d ^[f] (converted)
From the text: surface plasmon resonance, equilibrium on Mycobacterium tuberculosis InhA

[2] = molecular target: T1, Mycobacterium tuberculosis InhA; assay: InhA biochemical inhibition assay; details: for IC50: read-out: InhA pIC50 ^[a][e] (% 500 μM) (converted); for InhA pIC50 ^[a][e] (% 500 μM): tested up to 1 mM
From the text: InhA biochemical inhibition assay on Mycobacterium tuberculosis InhA

[3] = molecular target: T1, Mycobacterium tuberculosis InhA; assay: STD 1H NMR; format: binding; details: NADH-bound InhA; co-crystallised with ligands
[4] = published lead, not marked as earlier data in table

T1 sequence (P9WGR1 whole entry, looked up): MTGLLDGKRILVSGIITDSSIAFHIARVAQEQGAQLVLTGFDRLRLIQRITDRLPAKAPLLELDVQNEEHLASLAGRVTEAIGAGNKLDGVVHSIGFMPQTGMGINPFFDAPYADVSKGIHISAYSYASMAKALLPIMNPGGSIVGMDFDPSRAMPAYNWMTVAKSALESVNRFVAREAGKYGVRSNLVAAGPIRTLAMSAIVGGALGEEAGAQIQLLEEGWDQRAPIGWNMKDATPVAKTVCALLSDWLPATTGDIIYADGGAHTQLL

## Cc1cc(=O)c(-c2ccccc2)c(C)[nH]1 [compound 40, 40]
[1]
  Kd: 25.1 µM
[2]
  IC50: 15.8 µM

## Cc1cncc(CNC(=O)NC2CCN(c3ncccn3)CC2)c1 [compound 39, 39]
[1]
  Kd: 20 µM
[2]
  InhA pIC50 ^[a][e] (% 500 μM): 5.0±0.14

## O=C(NCc1cccnc1)NC1CCN(c2ncccn2)CC1 [compound 37, 37]
[2]
  InhA pIC50 ^[a][e] (% 500 μM): 4.1±0.06

## Cc1ccn(C(C)c2nnc(Nc3ccn(Cc4c(F)cccc4Cl)n3)s2)n1 (stereo not shown) [compound 45, 45]
[1]
  Kd: 0.01 µM
[2]; [4]
  InhA pIC50 ^[a][e] (% 500 μM): 8.1±0.27

## CCOC(=O)[C@@H]1CCc2nc(C)sc2C1 [compound 22, 22]
[2]
  IC50: 794 µM

## Cc1cc(=O)c(C2CCN(c3ncccn3)CC2)c(C)[nH]1 [compound 41, 41]
[1]
  Kd: 6.31 µM
[2]
  IC50: 1 µM

## Cc1cc(N)n(Cc2nnc(Nc3ccn(Cc4c(F)cccc4Cl)n3)s2)n1 [compound 47, 47]
[1]
  Kd: 0.0794 µM
[2]
  InhA pIC50 ^[a][e] (% 500 μM): 7.3±0.20

## Cc1cncc(CNC(=O)NC2CCCCC2)c1 [compound 38, 38]
[1]
  Kd: 631 µM
[2]
  IC50: 100 µM

## O=c1[nH]c(CC2CCCCC2)cc(O)c1C1CCN(c2ncccn2)CC1 [compound 42, 42]
[2]
  InhA pIC50 ^[a][e] (% 500 μM): 6.5±0.03

## OCc1ccc(Cn2cccn2)cc1 [compound 4, 4]
[2]
  IC50: > 1000 µM

## Cc1cc(N)n(Cc2ccccc2)n1 [compound 9, 9]
[1]
  Kd: 501 µM
[2]
  InhA pIC50 ^[a][e] (% 500 μM): 3.4±0.23

## NC(=O)C1=CN([C@@H]2O[C@H](COP(=O)(O)OP(=O)(O)OC[C@H]3O[C@@H](n4cnc5c(N)ncnc54)[C@H](O)[C@@H]3O)[C@@H](O)[C@H]2O)C=CC1 [NADH]
[3]
  STD 1H NMR: NADH binding was also observed in the STD‐NMR spectra

## Cc1cc(C)n(Cc2ccc(C(=O)NCc3ccc(F)cc3Cl)cc2)n1 [compound 44, 44]
[2]; [4]
  InhA pIC50 ^[a][e] (% 500 μM): 6.9±0.07

## CC(C)Cc1cc(O)c(C2CCN(c3ncccn3)CC2)c(=O)[nH]1 [compound 43, 43]
[1]
  Kd: 200 µM
[2]
  IC50: 6.31 µM

## Cc1cc(N)n(Cc2ccc(C(=O)NCc3ccc(F)cc3Cl)cc2)n1 [compound 46, 46]
[1]
  Kd: 0.501 µM
[2]
  InhA pIC50 ^[a][e] (% 500 μM): 6.3±0.25

## O=C(CCc1cccnc1)NC1CCN(c2ncccn2)CC1 [compound 36, 36]
[2]
  IC50: > 1000 µM
